The target in assay [1] is T1, BACE1 (Homo sapiens, UniProt P56817). Put plainly: In Vitro Enzymatic BACE FRET (Fluorescence Resonance Energy Transfer) Assay. The format is biochemical. The following applies: read-out: BACE1 FRET assay. A digest of the protocol: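 Acetate buffer at pH 4.2 with 10% DMSO and 100 uM genapol hosts the enzymatic reaction, initiated by 50 nM FRET substrate and allowed to proceed one hour. Tris quench to neutral pH precedes the fluorescence measurement.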

The target in assay [2] is T1, BACE1. Put plainly: In Vitro BACE Cell-based Assay (HEK cell assay): Aβ40 in conditioned medium of cells stably expressing Amyloid Precursor Protein, sandwich ELISA. The following applies: read-out: HEK cell assay. The method in brief:
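HEK cells stably expressing APP were treated 24 h with compound in 10-point dose response starting at 100 or 10 μM (0.1% DMSO). Secreted Aβ40 quantified by sandwich ELISA (pAb40 capture, biotinylated 6E10 detection, europium time-resolved fluorescence), with IC50 derived from percent inhibition versus concentration.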
On the technique in general: An ELISA detects its analyte on a solid surface through an enzyme-linked reagent.

Setting [3] is: in vitro BACE FRET enzyme assay, IC50 class symbols.
Where [4] appears, read: HEK cell-based assay, Aβ40 in conditioned medium, IC50 class symbols.

The results in this text go back to patent publication US8426447B2, “Spiro-tricyclic ring compounds as beta-secretase modulators and methods of use” (Amgen Inc., priority 2008, dated 2013).

T1 sequence (P56817 46-501, species assumed): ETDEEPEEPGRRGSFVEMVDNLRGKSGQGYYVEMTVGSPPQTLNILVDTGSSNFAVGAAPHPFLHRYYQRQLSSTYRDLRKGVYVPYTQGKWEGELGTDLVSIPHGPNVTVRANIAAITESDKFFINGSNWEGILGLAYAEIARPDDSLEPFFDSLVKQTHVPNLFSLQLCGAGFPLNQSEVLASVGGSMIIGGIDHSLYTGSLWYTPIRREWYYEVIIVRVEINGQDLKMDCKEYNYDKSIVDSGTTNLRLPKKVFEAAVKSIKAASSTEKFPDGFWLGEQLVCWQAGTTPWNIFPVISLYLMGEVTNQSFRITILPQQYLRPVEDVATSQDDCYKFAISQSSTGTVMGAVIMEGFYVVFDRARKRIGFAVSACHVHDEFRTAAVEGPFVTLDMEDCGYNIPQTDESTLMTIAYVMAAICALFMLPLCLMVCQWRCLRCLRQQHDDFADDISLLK

For `CC1(COc2cnc3c(c2)[C@]2(COC(N)=N2)c2cc(-c4ccccc4)ccc2O3)COC1` [compound 459], the IC50 on BACE1 [1] and at BACE1 [2] (HEK cells) was less than 0.1 µM in each case.
In the case of `NC1=N[C@]2(CO1)c1cc(-c3cncnc3)ccc1Oc1cccnc12` [compound 527], the IC50 on BACE1 [1] and on BACE1 [2] (HEK cells) was 0.1 to 1 µM in each case.
In the case of `CC1(COc2ccc3c(c2)[C@@]2(COC(N)=N2)c2cc(-c4cncnc4)cc(F)c2O3)COC1` [compound 795], the IC50 on BACE1 [1] (Table IV, class symbols) was less than 0.1 µM; at BACE1 [2] (Table IV, class symbols) it was less than 0.1 µM.
In the case of `COc1ccc2c(c1)C1(COC(N)=N1)c1cc(Br)ccc1O2` (stereo not drawn) [Example 35, 2′-bromo-7′-methoxyspiro[1,3-oxazole-4,9′-xanthen]-2-amine], the IC50 was greater than 5 µM on BACE1 [1] (Table 1) and greater than 5 µM at BACE1 [2] (Table 1, Aβ40, 24 h incubation).
Regarding `CC(=O)Cc1ccc2c(c1)[C@]1(COC(N)=N1)c1cc(-c3cccnc3)ccc1O2` [compound 658], the IC50 was in the range of 0.1 to 1 µM on BACE1 [1] (Table IV, class symbols) and 0.1 to 1 µM at BACE1 [2] (Table IV, class symbols).
Consider `CC(C)(F)COc1cc2c(cc1F)Oc1ccc(-c3cncnc3)cc1[C@@]21COC(N)=N1` [compound 530], for which the IC50 at BACE1 [1] and at BACE1 [2] (HEK cells) was less than 0.1 µM in each case.
Turning to `CC1(C)C=C(c2cc3c(cc2F)Oc2ccc(-c4cncnc4)cc2[C@@]32COC(N)=N2)CCO1` [compound 502], the IC50 at BACE1 [1] and at BACE1 [2] (HEK cells) was less than 0.1 µM in each case.
Turning to `NC1=N[C@]2(CO1)c1cc(CCC3(O)CCC3)ccc1Oc1ccc(-c3cccnc3)cc12` [compound 859], the IC50 at BACE1 [1] (Table IV, class symbols) was less than 0.1 µM; on BACE1 [2] (Table IV, class symbols), less than 0.1 µM.
In the case of `CC(C)(C)COc1ccc2c(c1)[C@@]1(COC(N)=N1)c1cc(C(=O)N3CCCC3)ccc1O2` [compound 992], the IC50 lay within 0.1 to 1 µM on BACE1 [1] and 1 to 5 µM at BACE1 [2].
For `CC(=O)COc1ccc2c(c1)[C@@]1(COC(N)=N1)c1cc(-c3cccnc3)cnc1O2` [compound 864], the IC50 on BACE1 [1] (Table IV, class symbols) was in the range of 0.1 to 1 µM; at BACE1 [2] (Table IV, class symbols), 0.1 to 1 µM.
As to `COC(=O)c1ccc(-c2ccc3c(c2)[C@]2(COC(N)=N2)c2cc(-c4cccnc4)ccc2O3)s1` [compound 722], the IC50 at BACE1 [1] and at BACE1 [2] was less than 0.1 µM in each case.
Take `CC(C)(C)COc1ccc2c(c1)[C@]1(COC(N)=N1)c1cc(-c3csc(C(F)F)c3)ccc1O2` [compound 737]: the IC50 at BACE1 [1] is less than 0.1 µM; at BACE1 [2] it was 0.1 to 1 µM.
As for `CC(C)(C)OCCOc1ccc2c(c1)[C@]1(COC(N)=N1)c1cc(-c3cncnc3)ccc1O2` [compound 158], the IC50 on BACE1 [1] (Table III, IC50's in uM ranges) was less than 0.1 µM; at BACE1 [2] (Table III, IC50's in uM ranges), less than 0.1 µM.
Turning to `COc1cc(F)c2c(c1)[C@@]1(COC(N)=N1)c1cc(-c3cncnc3)ccc1O2` [compound 582], the IC50 on BACE1 [1] (Table IV, class symbols) is 1 to 5 µM; at BACE1 [2] (Table IV, class symbols), greater than 5 µM.
On to `Cc1ccc(-n2ccc3c(c2=O)[C@]2(COC(N)=N2)c2cc(-c4cccnc4)ccc2O3)cc1` [compound 504], for which the IC50 at BACE1 [1] and on BACE1 [2] (HEK cells) was 0.1 to 1 µM throughout.
`COC1CN(c2cc(F)c3c(c2)[C@]2(COC(N)=N2)c2cc(-c4cccnc4)ccc2O3)C1` [compound 474]: the IC50 at BACE1 [1] and at BACE1 [2] (HEK cells) was less than 0.1 µM in each case.
Consider `N#Cc1cccc(-c2ccc3c(c2)[C@]2(COC(N)=N2)c2cccnc2O3)c1` [compound 610], for which the IC50 at BACE1 [1] (Table IV, class symbols) fell in the range of 0.1 to 1 µM; at BACE1 [2] (Table IV, class symbols) it was 1 to 5 µM.
In the case of `COc1ccc2c(c1)[C@]1(N=C(N)O[C@H]1C)c1cc(-c3cncnc3)ccc1O2` (single isomer, unassigned) [Example 125a], the IC50 is greater than 5 µM at BACE1 [1] (Table III, IC50's in uM ranges) and greater than 5 µM at BACE1 [2] (Table III, IC50's in uM ranges).
On to `CC(C)(C)COc1ccc2c(c1)[C@]1(COC(N)=N1)c1cc(C3CCOCC3)ccc1O2` [compound 747], for which the IC50 at BACE1 [1] lay in the range of 0.1 to 1 µM; at BACE1 [2], 1 to 5 µM.
For `CC(C)(F)COc1cc2c(cc1F)Oc1ccc(-c3cccnc3)cc1[C@@]21COC(N)=N1` [compound 353, (4S)-3′-fluoro-2′-(2-fluoro-2-methylpropoxy)-7′-(3-pyridinyl)spiro[1,3-oxazole-4,9′-xanthen]-2-amine], the IC50 at BACE1 [1] (setting [3]) and at BACE1 [2] (setting [4]) was less than 0.1 µM in each case.
Regarding `Cc1ccc2c(c1)Oc1ccc(-c3cccc(Cl)c3F)cc1C21COC(N)=N1` (stereo not drawn) [Example 26, 2′-(3-chloro-2-fluorophenyl)-6′-methylspiro[1,3-oxazole-4,9′-xanthen]-2-amine], the IC50 at BACE1 [1] (Table 1) is greater than 5 µM; at BACE1 [2] (Table 1, Aβ40, 24 h incubation) it was 1 to 5 µM.
Turning to `CC1(C)CN(c2cc(F)c3c(c2)[C@]2(COC(N)=N2)c2cc(-c4cncnc4)ccc2O3)CCO1` [compound 505], the IC50 at BACE1 [1] and at BACE1 [2] (HEK cells) was less than 0.1 µM throughout.
For the compound `COCC(=O)Nc1ccc2c(c1)[C@@]1(COC(N)=N1)c1cc(C#CC(C)(C)C)ccc1O2` [compound 324], the IC50 on BACE1 [1] (setting [3]) is less than 0.1 µM; on BACE1 [2] (setting [4]), 0.1 to 1 µM.
On to `NC1=N[C@]2(CO1)c1cc(C3=CCOCC3)ccc1Oc1cnc(-c3cccnc3F)cc12` [compound 497], for which the IC50 on BACE1 [1] and on BACE1 [2] (HEK cells) was less than 0.1 µM in each case.
Take `CC1(C)Cc2cc(-c3ccc4c(c3)[C@]3(COC(N)=N3)c3cc(-c5cncnc5)ccc3O4)ccc2O1` [compound 841]: the IC50 at BACE1 [1] (Table IV, class symbols) was less than 0.1 µM; on BACE1 [2] (Table IV, class symbols), 0.1 to 1 µM.
In the case of `COc1ccc2c(c1)C1(COC(N)=N1)c1cc(-c3ccccc3C)ccc1O2` (stereo not drawn) [Example 32, 2′-methoxy-7′-(2-methylphenyl)spiro[1,3-oxazole-4,9′-xanthen]-2-amine], the IC50 on BACE1 [1] (Table 1) is greater than 5 µM; at BACE1 [2] (Table 1, Aβ40, 24 h incubation), 1 to 5 µM.
Take `CC1(C#Cc2cnc3c(c2)[C@]2(COC(N)=N2)c2cc(-c4cc(F)ccc4F)ccc2O3)COC1` [compound 519]: the IC50 at BACE1 [1] and on BACE1 [2] (HEK cells) was less than 0.1 µM each time.
Take `NC1=N[C@@]2(CO1)c1cc(Br)ccc1Oc1ccc(C#CC3(O)CCC3)cc12` [compound 957]: the IC50 is 1 to 5 µM on BACE1 [1] and greater than 5 µM on BACE1 [2].
The like results for `CC(C)(C)OC(=O)/C=C/c1ccc2c(c1)[C@]1(COC(N)=N1)c1cc(Br)ccc1O2` [compound 996] were, in that order, greater than 5 µM and greater than 5 µM.
The like results for `CC1(COc2ccc3c(c2)[C@@]2(COC(N)=N2)c2cc(-c4cccc(F)c4)cnc2O3)COC1` [compound 774] were, in that order, less than 0.1 µM and less than 0.1 µM.
Turning to `CC(C)(C)CNc1cc2c(cn1)Oc1ccc(-c3cccnc3)cc1[C@@]21COC(N)=N1` [compound 440], the IC50 on BACE1 [1] and on BACE1 [2] (HEK cells) was less than 0.1 µM in each case.
Take `NC1=N[C@@]2(CO1)c1cc(-c3cccnc3)ccc1Oc1ncc(N3CCOCC3)cc12` [compound 539]: the IC50 on BACE1 [1] (Table IV, class symbols) was less than 0.1 µM; on BACE1 [2] (Table IV, class symbols), less than 0.1 µM.
On to `Cc1ccc(-c2ccc3c(c2)[C@]2(COC(N)=N2)c2cc(-c4cncnc4)ccc2O3)s1` [compound 820], for which the IC50 is less than 0.1 µM at BACE1 [1] (Table IV, class symbols) and less than 0.1 µM on BACE1 [2] (Table IV, class symbols).
With `CC(C)(C#N)COc1cnc2c(c1)[C@]1(COC(N)=N1)c1cc(-c3cccnc3)ccc1O2` [compound 410], the IC50 at BACE1 [1] (setting [3]) and on BACE1 [2] (setting [4]) was less than 0.1 µM throughout.
For `NC1=NC2(CO1)c1cc(-c3cccnc3)ccc1Oc1c2cc(-c2cccnc2)nc1F` (stereo not drawn) [compound 301, 1-fluoro-3,7-di(pyridin-3-yl)-5′H-spiro[chromeno[2,3-c]pyridine-5,4′-oxazol]-2′-amine], the IC50 on BACE1 [1] (setting [3]) and on BACE1 [2] (setting [4]) was less than 0.1 µM in each case.
On to `NC1=N[C@]2(CO1)c1cc(-c3ccc(C(F)(F)F)cc3)ccc1Oc1ccc(-c3cncnc3)cc12` [compound 811], for which the IC50 is less than 0.1 µM on BACE1 [1] (Table IV, class symbols) and 0.1 to 1 µM at BACE1 [2] (Table IV, class symbols).
